This assay deals with CERT mRNA. Kind of assay: Test for screening active agents by real-time RT-PCR: expression of CERT mRNA in keratinocytes. The class given is cell-based. The settings on record: normal human keratinocytes (neonatal foreskin), 24 hours incubation, concentration 0.0005%, number of times of increase vs untreated (1.0), normalized to RPLPO. On the procedure:
The effect of two active agents on the expression of the mRNA of CERT was evaluated in keratinocytes. Keratinocytes derived from neonatal foreskins (Cascade Biologics/Invitrogen, Portland, Oreg., USA) are inoculated in 6-well plates and cultured in keratinocyte growth culture medium (Epilife, Invitrogen), i.e. a modified culture medium supplemented with EDGS. After culturing for 24 hours in an incubator at 37° C., the 70%-80% confluent cells are washed with PBS buffer (Invitrogen) and incubated with basic medium (Epilife, Invitrogen) containing the active agent to be tested, for 24 hours and in triplicate, at increasing concentrations. After studying the cytotoxicity of the active agent, its activity is evaluated. To quantify the expression of CERT messenger RNA in a treated sample relative to an untreated sample, first the RNA is isolated using the RNeasy reagent kit (Qiagen, CA, USA) and then quantified using the QuantIt kit (Invitrogen). Reverse transcription is performed using the gene Amp RNA PCR kit (Applied Biosystems) according to the manufacturer's recommendations. The real-time PCR measurement is performed using the iCYCLER IQ machine (Bio-Rad, CA, USA) with Taqman probes. […] The relative quantification of the expression of the target gene is performed using the Pfaffl mathematical model (Pfaffl, MW, Nucleic Acids Res. 29(9), p. […], 2001). […]

For the molecule `O=C(O)CCCC[C@@H]1CCSS1` (racemic) [Lipoic acid], the “Stimulation of CERT mRNA” value was 2.0.

Take `Oc1ccc(C=Cc2cc(O)cc(O)c2)cc1` [Resveratrol]: the “Stimulation of CERT mRNA” value is listed as 2.4.
